Data published in US11014895B2, “Heterocyclic urea compound, and drug composition and application thereof” (CHINA PHARMACEUTICAL UNIVERSITY, priority 2017, dated 2021).

Experiments:
IDO1 enzyme = IDO1 enzyme (Homo sapiens, UniProt P14902); test: Determination of biochemical activity of IDO1 enzyme (absorbance at 320 nm); details: room temperature, 3 hours
Procedure: (1) Method for Determining Biochemical Activity of IDO1 Enzyme
Firstly, 15 μl of buffer solution of sodium hydrogen phosphate (PH:7-8), 5 μl of reaction buffer solution containing a proper amount of IDO-1 enzyme and heterocyclic urea compound prepared by the invention were added into wells of a microplate, mixed evenly, and reacted at room temperature for 3 hours; then a light absorption value at 320 nm wavelength was detected by using Envision Multilabel Reader of PE company, an inhibition rate of the heterocyclic urea compound on the enzyme reaction was calculated according to an absorption ratio, and an IC50 value of the heterocyclic urea compound was calculated through analysis by GraphPad.

[1] = biological target: T1, IDO1 enzyme in the Hela cell (Homo sapiens, UniProt P14902); test: Cell activity: interferon γ-stimulated Hela cells, absorbance of supernatant at 480 nm; assay type: cell-based; details: interferon γ 100 ng/ml, 72 hours
T1 construct: endogenous in cells; host or cells: HeLa cells stimulated with interferon γ (100 ng/ml)
Procedure: (2) Method for Determining Cell Activity
Hela cells were cultured and passaged in a DMEM medium supplemented with antibiotics in a 37° C. CO2 incubator, inoculated into a 96-well plate for overnight culture, then 1 μl of heterocyclic urea compound with appropriate concentration was added to each well, and then 100 μl of interferon γ (final concentration was 100 ng/ml) was added. After the cells were continuously cultured for 72 hours, 70 μl of cell culture supernatant was added to a 96-well V-bottom plate, 5 μl of trichloroacetic acid (6.1 N) was added to each well, incubated at 50° C. for 30 min, then taken out and centrifuged at […] for 10 min. The above centrifuged supernatant was transferred to a 384-well microplate (20 μl/well), then 20 μl of 2% didimethylaminobenzaldehyde acetic acid solution was added to each well, shaken and mixed evenly, then photometric absorption was performed at 480 nm, and values were measured.

T1 sequence (P14902 whole entry): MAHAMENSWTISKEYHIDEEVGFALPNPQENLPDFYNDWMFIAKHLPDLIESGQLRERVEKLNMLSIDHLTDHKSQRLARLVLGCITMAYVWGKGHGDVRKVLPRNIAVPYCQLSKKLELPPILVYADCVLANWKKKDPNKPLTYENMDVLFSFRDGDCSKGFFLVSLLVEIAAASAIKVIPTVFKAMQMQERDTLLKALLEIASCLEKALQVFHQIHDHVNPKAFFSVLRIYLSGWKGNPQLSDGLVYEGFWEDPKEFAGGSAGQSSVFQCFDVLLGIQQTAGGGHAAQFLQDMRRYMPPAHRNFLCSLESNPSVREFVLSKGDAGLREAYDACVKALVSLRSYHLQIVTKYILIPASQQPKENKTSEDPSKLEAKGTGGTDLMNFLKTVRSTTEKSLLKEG
Sequence of IDO1 enzyme (P14902 whole entry): as above

| IC50 (IDO1 enzyme) | IC50 [1] | Structure (SMILES) |
| --- | --- | --- |
| 0.1 to 1 µM | 0.1 to 1 µM | O=C(Nc1nocc1/C(=N/O)Nc1ccc(F)c(Br)c1)Nc1cccc2[nH]ccc12 [Embodiment 94, (Z)-1-(4-(N-(3-bromo-4-fluorophenyl)-N′-hydroxyaminoiminomethyl)-isoxazole-3-substituted)-3-(4-aminoindole)urea] |
| 0.1 to 1 µM | 0.1 to 1 µM | CS(=O)(=O)N1CCN(C(=O)Nc2nonc2/C(=N/O)Nc2ccc(F)c(Br)c2)CC1 [Embodiment 50] |
| 0.1 to 1 µM | 0.1 to 1 µM | N=C(Nc1ccccc1)Nc1nocc1/C(=N/O)Nc1ccc(F)c(Br)c1 [Embodiment 158, (Z)-1-(4-(N-(3-bromo-4-fluorophenyl)-N′-hydroxyaminoiminomethyl)-isoxazole-3-substituted)-3-phenylguanidine] |
| 0.1 to 1 µM | 0.1 to 1 µM | O=C(Nc1nonc1/C(=N/O)Nc1ccc(F)c(Br)c1)NC1CCOC1 (stereo not shown) [Embodiment 47, (Z)-1-(4-(N-(3-bromo-4-fluorophenyl)-N′-hydroxyaminoiminomethyl)-1,2,5-oxadiazole-3-substituted)-3-(tetrahydrofuran-substituted)urea] |
| < 0.001 µM | < 0.001 µM | O=C(Nc1nonc1/C(=N/O)Nc1ccc(F)cc1)NC1CCC(O)CC1 (stereo not shown) [Embodiment 55] |
| > 1 µM | > 1 µM | O/N=C(\Nc1ccc(F)c(Br)c1)c1nonc1NC(=S)NC1CCCC1 [Embodiment 122, (Z)-1-(4-(N-(3-bromo-4-fluorophenyl)-N′-hydroxyaminoiminomethyl)-1,2,5-oxadiazole-3-substituted)-3-(cyclopentyl)thiourea] |
| 0.1 to 1 µM | 0.1 to 1 µM | O=C(Nc1nocc1/C(=N/O)Nc1ccc(F)c(Br)c1)Nc1c[nH]c2ccccc12 [Embodiment 95, (Z)-1-(4-(N-(3-bromo-4-fluorophenyl)-N′-hydroxyaminoiminomethyl)-isoxazole-3-substituted)-3-(3-aminoindole)urea] |
| 0.1 to 1 µM | 0.1 to 1 µM | O=C(Nc1ccccc1)Nc1conc1/C(=N/O)Nc1ccc(F)c(Cl)c1 [Embodiment 113, (Z)-1-(4-(N-(3-chloro-4-fluorophenyl)-N′-hydroxyaminoiminomethyl)-isoxazole-3-substituted)-4-phenylurea] |
| < 0.001 µM | < 0.001 µM | CS(=O)(=O)NCCCNC(=O)Nc1nonc1/C(=N/O)Nc1ccc(F)c(Br)c1 [Embodiment 17, (Z)-1-(4-(N-(3-bromo-4-fluorophenyl)-N′-hydroxyaminoiminomethyl)-1,2,5-oxadiazole-3-substituted)-3-(3-methamido-propyl)urea] |
| 0.1 to 1 µM | 0.1 to 1 µM | CCCNC(=O)Nc1nocc1/C(=N/O)Nc1ccc(F)c(Br)c1 [Embodiment 91, (Z)-1-(4-(N-(3-bromo-4-fluorophenyl)-N′-hydroxyaminoiminomethyl)-isoxazole-3-substituted)-3-(propyl)urea] |
| < 0.001 µM | < 0.001 µM | O=C(NCCCO)Nc1conc1/C(=N/O)Nc1ccc(F)c(Br)c1 [Embodiment 109] |
| 0.1 to 1 µM | 0.1 to 1 µM | O=C(Nc1cocc1/C(=N/O)Nc1ccc(F)c(Br)c1)NC1CCNCC1 [Embodiment 64, (Z)-1-(4-(N-(3-bromo-4-fluorophenyl)-N′-hydroxyaminoiminomethyl)-furan-3-substituted)-3-(piperidine-4-substituted)urea] |
| > 1 µM | > 1 µM | O=C(Nc1ncc[nH]1)Nc1nonc1/C(=N/O)Nc1ccc(F)c(Br)c1 [Embodiment 46, (Z)-1-(4-(N-(3-bromo-4-fluorophenyl)-N′-hydroxyaminoiminomethyl)-1,2,5-oxadiazole-3-substituted)-3-(1H-imidazole-2-substituted)urea] |
| 0.1 to 1 µM | 0.1 to 1 µM | O=C(Nc1cc[nH]c1)Nc1nonc1/C(=N/O)Nc1ccc(F)c(Br)c1 [Embodiment 40, (Z)-1-(4-(N-(3-bromo-4-fluorophenyl)-N′-hydroxyaminoiminomethyl)-1,2,5-oxadiazole-3-substituted)-3-(1H-pyrrole-3-substituted)urea] |
| > 1 µM | > 1 µM | N#Cc1ccc(NC(=O)Nc2nonc2/C(=N/O)Nc2ccc(F)cc2)cc1 [Embodiment 57, (Z)-1-(4-(N-(4-fluorophenyl)-N′-hydroxyaminoiminomethyl)-1,2,5-oxadiazole-3-substituted)-3-(4-cyanophenyl)urea] |
| 0.1 to 1 µM | 0.1 to 1 µM | COc1ccc(NC(=O)Nc2cocc2/C(=N/O)Nc2ccc(F)c(Br)c2)cc1 [Embodiment 58, (Z)-1-(4-(N-(3-bromo-4-fluorophenyl)-N′-hydroxyaminoiminomethyl)-furan-3-substituted)-3-(4-methoxyphenyl)urea] |

| IC50 (IDO1 enzyme) | IC50 [1] | Structure (SMILES) |
| --- | --- | --- |
| 0.1 to 1 µM | 0.1 to 1 µM | N=C(Nc1nonc1/C(=N/O)Nc1ccc(F)c(Br)c1)NC1CCC(N)CC1 (stereo not shown) [Embodiment 150, (Z)-1-(4-(N-(3-bromo-4-fluorophenyl)-N′-hydroxyaminoiminomethyl)-1,2,5-oxadiazole-3-substituted)-3-(4-aminocyclohexyl)guanidine] |
| > 1 µM | > 1 µM | O=C(Nc1ccccc1)Nc1cocc1/C(=N/O)Nc1ccc(F)c(Br)c1 [Embodiment 60, (Z)-1-(4-(N-(3-bromo-4-fluorophenyl)-N′-hydroxyaminoiminomethyl)-furan-3-substituted)-3-phenylurea] |
| < 0.001 µM | < 0.001 µM | CS(=O)(=O)NCCNC(=O)Nc1nocc1/C(=N/O)Nc1ccc(F)c(Br)c1 [Embodiment 93, (Z)-1-(4-(N-(3-bromo-4-fluorophenyl)-N′-hydroxyaminoiminomethyl)-isoxazole-3-substituted)-3-(2-methamidoethyl)urea] |
| < 0.001 µM | < 0.001 µM | N=C(NCCN)Nc1nonc1/C(=N/O)Nc1ccc(F)c(Br)c1 [Embodiment 153] |
| > 1 µM | > 1 µM | O=C(Nc1ccsc1)Nc1cocc1/C(=N/O)Nc1ccc(F)c(Br)c1 [Embodiment 78] |
| > 1 µM | > 1 µM | O=C(Nc1ccc(C(F)(F)F)cc1)Nc1nonc1/C(=N/O)Nc1ccc(F)c(Br)c1 [Embodiment 6, (Z)-1-(4-(N-(3-bromo-4-fluorophenyl)-N′-hydroxyaminoiminomethyl)-1,2,5-oxadiazole-3-substituted)-3-(4-trifluorotolyl)urea] |
| 0.1 to 1 µM | 0.1 to 1 µM | O=C(Nc1nonc1/C(=N/O)Nc1ccc(F)c(Br)c1)Nc1coc2ccccc12 [Embodiment 38, (Z)-1-(4-(N-(3-bromo-4-fluorophenyl)-N′-hydroxyaminoiminomethyl)-1,2,5-oxadiazole-3-substituted)-3-(benzofuran-3-substituted)urea] |
| 0.1 to 1 µM | 0.1 to 1 µM | N=C(Nc1ccccc1)Nc1conc1/C(=N/O)Nc1ccc(F)c(Cl)c1 [Embodiment 155, (Z)-1-(4-(N-(3-chloro-4-fluorophenyl)-N′-hydroxyaminoiminomethyl)-isoxazole-3-substituted)-4-phenylguanidine] |
| 0.1 to 1 µM | 0.1 to 1 µM | O/N=C(\Nc1ccc(F)c(Br)c1)c1conc1NC(=S)Nc1ccccc1 [Embodiment 134, (Z)-1-(4-(N-(3-bromo-4-fluorophenyl)-N′-hydroxyaminoiminomethyl)-isoxazole-3-substituted)-3-(phenyl)thiourea] |
| > 1 µM | > 1 µM | Cc1ccc(NC(=O)Nc2nonc2/C(=N/O)Nc2ccc(F)c(Br)c2)cc1 [Embodiment 4] |
| 0.1 to 1 µM | 0.1 to 1 µM | O=C(Nc1cocc1/C(=N/O)Nc1ccc(F)c(Br)c1)NC1CCCC1 [Embodiment 62, (Z)-1-(4-(N-(3-bromo-4-fluorophenyl)-N′-hydroxyaminoiminomethyl)-furan-3-substituted)-3-cyclopentylurea] |
| < 0.001 µM | < 0.001 µM | N=C(Nc1nonc1/C(=N/O)Nc1ccc(F)c(Br)c1)NC1CCCCC1 [Embodiment 145, (Z)-1-(4-(N-(3-bromo-4-fluorophenyl)-N′-hydroxyaminoiminomethyl)-1,2,5-oxadiazole-3-substituted)-3-cyclohexylguanidine] |
| 0.1 to 1 µM | 0.1 to 1 µM | O=C(Nc1nonc1/C(=N/O)Nc1ccc(F)c(Br)c1)NC1CCCCCC1 [Embodiment 33, (Z)-1-(4-(N-(3-bromo-4-fluorophenyl)-N′-hydroxyaminoiminomethyl)-1,2,5-oxadiazole-3-substituted)-3-cycloheptylurea] |
| 0.1 to 1 µM | 0.1 to 1 µM | O=C(Nc1nocc1/C(=N/O)Nc1ccc(F)c(Br)c1)NC1CCC(O)CC1 (stereo not shown) [Embodiment 84, (Z)-1-(4-(N-(3-bromo-4-fluorophenyl)-N′-hydroxyaminoiminomethyl)-isoxazole-3-substituted)-3-(4-hydroxycyclohexyl)urea] |
| 0.1 to 1 µM | 0.1 to 1 µM | COc1ccc(NC(=N)Nc2conc2/C(=N/O)Nc2ccc(F)c(Cl)c2)cc1 [Embodiment 154, (Z)-1-(4-(N-(3-chloro-4-fluorophenyl)-N′-hydroxyaminoiminomethyl)-isoxazole-3-substituted)-4-(4-methoxyphenyl)guanidine] |
| 0.1 to 1 µM | 0.1 to 1 µM | O=C(Nc1cocc1/C(=N/O)Nc1ccc(F)c(Br)c1)NC1CC1 [Embodiment 65] |
